Converted amounts (≈) assume the structure as drawn.
Key:
Assay type in all cases: cell-based
Staph. aureus C-5216 = experiment: MIC by agar dilution, Staph. aureus C-5216; conditions: Staphylococcus aureus, C5216, 17 h, Mueller-Hinton agar, read-out: Minimal Inhibitory Concentration (MIC)
Method in brief: (§1)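 Medium: Mueller-Hinton agar with compound in doubling dilutions. Inoculum: 10^6 CFU/ml. Incubation: 35°-37° C. for 17±1 hours.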

E. coli NIHJ JC-2 = experiment: MIC by agar dilution, E. coli NIHJ JC-2; conditions: Escherichia coli, NIHJJC2, 17 h; E. coli NIHJ JC-2; agar dilution, Mueller-Hinton agar; read-out: Minimal Inhibitory Concentration (MIC)
Method in brief: as §1

Staph. aureus Smith = experiment: MIC by agar dilution, Staph. aureus Smith; conditions: Staphylococcus aureus, 17 h, Mueller-Hinton agar, read-out: Minimal Inhibitory Concentration (MIC)
Method in brief: as §1

[1] = test system: Ps. aeruginosa ATCC 10145; experiment: MIC by agar dilution, Ps. aeruginosa ATCC 10145; conditions: Pseudomonas aeruginosa, ATCC10145, 17 h, Mueller-Hinton agar, read-out: Minimal Inhibitory Concentration (MIC)
Method in brief: as §1

Staph. aureus C-5113 = experiment: MIC by agar dilution, Staph. aureus C-5113; conditions: Staphylococcus aureus, C5113, 17 h, Mueller-Hinton agar, read-out: Minimal Inhibitory Concentration (MIC)
Method in brief: as §1

[2] = test system: Ps. aeruginosa NCTC 10490; experiment: MIC by agar dilution, Ps. aeruginosa NCTC 10490; conditions: Pseudomonas aeruginosa, NCTC10490, 17 h, Mueller-Hinton agar, read-out: Minimal Inhibitory Concentration (MIC)
Method in brief: as §1

Staph. aureus C-57 = experiment: MIC by agar dilution, Staph. aureus C-57; conditions: Staphylococcus aureus, C57, 17 h, Mueller-Hinton agar, read-out: Minimal Inhibitory Concentration (MIC)
Method in brief: as §1

E. coli No. 29 = experiment: MIC by agar dilution, E. coli No. 29; conditions: Escherichia coli, 17 h; E. coli No. 29; agar dilution, Mueller-Hinton agar; read-out: Minimal Inhibitory Concentration (MIC)
Method in brief: as §1

Ent. aerogenes IFO 12979 = experiment: MIC by agar dilution, Ent. aerogenes IFO 12979; conditions: Klebsiella aerogenes, IFO12979, 17 h, Mueller-Hinton agar, read-out: Minimal Inhibitory Concentration (MIC)
Method in brief: as §1

Prov. stuartii IFO 12930 = experiment: MIC by agar dilution, Prov. stuartii IFO 12930; conditions: Providencia stuartii, IFO12930, 17 h, Mueller-Hinton agar, read-out: Minimal Inhibitory Concentration (MIC)
Method in brief: as §1

Ps. aeruginosa DY-2 = experiment: MIC by agar dilution, Ps. aeruginosa DY-2; conditions: Pseudomonas aeruginosa, DY2, 17 h; Ps. aeruginosa DY-2; agar dilution, Mueller-Hinton agar; read-out: Minimal Inhibitory Concentration (MIC)
Method in brief: as §1

[3] = test system: S. epidermidis ATCC 12228; experiment: MIC by agar dilution, S. epidermidis ATCC 12228; conditions: Staphylococcus epidermidis, ATCC12228, 17 h; S. epidermidis ATCC 12228; agar dilution, Mueller-Hinton agar; read-out: Minimal Inhibitory Concentration (MIC)
Method in brief: as §1

[4] = test system: Ser. marcescens IFO 12648; experiment: MIC by agar dilution, Ser. marcescens IFO 12648; conditions: Serratia marcescens, IFO12648, 17 h; Ser. marcescens IFO 12648; agar dilution, Mueller-Hinton agar; read-out: Minimal Inhibitory Concentration (MIC)
Method in brief: as §1

E. coli DY-1 = experiment: MIC by agar dilution, E. coli DY-1; conditions: Escherichia coli, DY1, 17 h; E. coli DY-1; agar dilution, Mueller-Hinton agar; read-out: Minimal Inhibitory Concentration (MIC)
Method in brief: as §1

P. vulgaris NCTC 8313 = experiment: MIC by agar dilution, P. vulgaris NCTC 8313; conditions: Proteus vulgaris, NCTC8313, 17 h; P. vulgaris NCTC 8313; agar dilution, Mueller-Hinton agar; read-out: Minimal Inhibitory Concentration (MIC)
Method in brief: as §1

K. pneumoniae NCTC 9632 = experiment: MIC by agar dilution, K. pneumoniae NCTC 9632; conditions: Klebsiella pneumoniae, NCTC9632, 17 h; K. pneumoniae NCTC 9632; agar dilution, Mueller-Hinton agar; read-out: Minimal Inhibitory Concentration (MIC)
Method in brief: as §1

Staph. aureus ATCC 6538P = experiment: MIC by agar dilution, Staph. aureus ATCC 6538P; conditions: Staphylococcus aureus, ATCC6538P, 17 h; Staph. aureus ATCC 6538P; agar dilution, Mueller-Hinton agar; read-out: Minimal Inhibitory Concentration (MIC)
Method in brief: as §1

B. subtilis ATCC 6633 = experiment: MIC by agar dilution, B. subtilis ATCC 6633; conditions: Bacillus subtilis, ATCC6633, 17 h; B. subtilis ATCC 6633; agar dilution, Mueller-Hinton agar; read-out: Minimal Inhibitory Concentration (MIC)
Method in brief: as §1

Ent. cloacae IFO 13535 = experiment: MIC by agar dilution, Ent. cloacae IFO 13535; conditions: Enterobacter cloacae, IFO13535, 17 h; Ent. cloacae IFO 13535; agar dilution, Mueller-Hinton agar; read-out: Minimal Inhibitory Concentration (MIC)
Method in brief: as §1

M. morganii DY-1 = experiment: MIC by agar dilution, M. morganii DY-1; conditions: Morganella morganii, DY1, 17 h; M. morganii DY-1; agar dilution, Mueller-Hinton agar; read-out: Minimal Inhibitory Concentration (MIC)
Method in brief: as §1

Row | Compound | MIC (Staph. aureus C-5216) | MIC (E. coli NIHJ JC-2) | MIC (Staph. aureus Smith) | MIC [1] | MIC (Staph. aureus C-5113) | MIC [2] | MIC (Staph. aureus C-57) | MIC (E. coli No. 29) | MIC (Ent. aerogenes IFO 12979) | MIC (Prov. stuartii IFO 12930) | MIC (Ps. aeruginosa DY-2) | MIC [3] | MIC [4] | MIC (E. coli DY-1) | MIC (P. vulgaris NCTC 8313) | MIC (K. pneumoniae NCTC 9632) | MIC (Staph. aureus ATCC 6538P) | MIC (B. subtilis ATCC 6633) | MIC (Ent. cloacae IFO 13535) | MIC (M. morganii DY-1)
1 | CO/N=C(\C(=O)N[C@@H]1C(=O)N2C(C(=O)[O-])=C(C[n+]3ccn4c(C#N)ccc4c3C)CS[C@H]12)c1csc(N)n1 [Ex. 43, 7-β-[(Z)-2-(2-aminothiazol-4-yl)-2-methoxyiminoacetamido]-3-(1-methyl-6-cyanopyrrolo[1,2-a]pyrazinium-2-yl)methyl-3-cephem-4-carboxylate] | 0.78 µg/mL (≈ 1.41 µM) | 0.025 µg/mL (≈ 0.0452 µM) | 0.78 µg/mL (≈ 1.41 µM) | 0.78 µg/mL (≈ 1.41 µM) | 1.56 µg/mL (≈ 2.82 µM) | 0.78 µg/mL (≈ 1.41 µM) | 12.5 µg/mL (≈ 22.6 µM) | 0.05 µg/mL (≈ 0.0905 µM) | 0.012 µg/mL (≈ 0.0217 µM) | 0.012 µg/mL (≈ 0.0217 µM) | 12.5 µg/mL (≈ 22.6 µM) | 0.012 µg/mL (≈ 0.0217 µM) | 0.05 µg/mL (≈ 0.0905 µM) | 0.012 µg/mL (≈ 0.0217 µM) | ≤ 0.006 µg/mL | 0.1 µg/mL (≈ 0.181 µM) | 0.1 µg/mL (≈ 0.181 µM) | 0.2 µg/mL (≈ 0.362 µM) | 0.2 µg/mL (≈ 0.362 µM) | 0.05 µg/mL (≈ 0.0905 µM)
2 | CON=C(C(=O)NC1C(=O)N2C(C(=O)[O-])=C(C[n+]3ccn4c(Cl)ccc4c3)CSC12)c1csc(N)n1 (stereo not drawn) [Ex. 11, 7-β-[(Z)-2-(2-aminothiazol-4-yl)-2-methoxyiminoacetamido]-3-(6-chloropyrrolo[1,2-a]pyrazinium-2-yl)methyl-3-cephem-4-carboxylate] | 0.78 µg/mL (≈ 1.42 µM) | ≤ 0.006 µg/mL | 0.39 µg/mL (≈ 0.712 µM) | 0.78 µg/mL (≈ 1.42 µM) | 0.78 µg/mL (≈ 1.42 µM) | 0.39 µg/mL (≈ 0.712 µM) | 12.5 µg/mL (≈ 22.8 µM) | ≤ 0.006 µg/mL | ≤ 0.006 µg/mL | ≤ 0.006 µg/mL | 3.13 µg/mL (≈ 5.71 µM) | 0.025 µg/mL (≈ 0.0456 µM) | 0.012 µg/mL (≈ 0.0219 µM) | ≤ 0.006 µg/mL | ≤ 0.006 µg/mL | ≤ 0.006 µg/mL | 0.2 µg/mL (≈ 0.365 µM) | 0.1 µg/mL (≈ 0.182 µM) | 0.05 µg/mL (≈ 0.0912 µM) | ≤ 0.006 µg/mL
3 | CO/N=C(\C(=O)N[C@@H]1C(=O)N2C(C(=O)[O-])=C(C[n+]3ccn4ccc(CO)c4c3)CS[C@H]12)c1nsc(N)n1 [Ex. 55, 7-β-[(Z)-2-(5-amino-1,2,4-thiadiazol-3-yl)-2-methoxyiminoacetamido]-3-(8-hydroxymethylpyrrolo[1,2-a]-pyrazinium-2-yl)methyl-3-cephem-4-carboxylate] | 3.13 µg/mL (≈ 5.75 µM) | 0.012 µg/mL (≈ 0.022 µM) | 1.56 µg/mL (≈ 2.86 µM) | 0.78 µg/mL (≈ 1.43 µM) | 6.25 µg/mL (≈ 11.5 µM) | 0.1 µg/mL (≈ 0.184 µM) | 25 µg/mL (≈ 45.9 µM) | ≤ 0.006 µg/mL | 0.025 µg/mL (≈ 0.0459 µM) | ≤ 0.006 µg/mL | 1.56 µg/mL (≈ 2.86 µM) | 0.2 µg/mL (≈ 0.367 µM) | 0.025 µg/mL (≈ 0.0459 µM) | 0.012 µg/mL (≈ 0.022 µM) | 0.05 µg/mL (≈ 0.0918 µM) | 0.025 µg/mL (≈ 0.0459 µM) | 0.78 µg/mL (≈ 1.43 µM) | 0.1 µg/mL (≈ 0.184 µM) | 0.1 µg/mL (≈ 0.184 µM) | 0.025 µg/mL (≈ 0.0459 µM)
4 | CCON=C(C(=O)NC1C(=O)N2C(C(=O)[O-])=C(C[n+]3ccn4c(C=O)ccc4c3)CSC12)c1csc(N)n1 (stereo not drawn) [Ex. 26, 7-β-[(Z)-2-(2-aminothiazol-4-yl)2-ethoxyiminoacetamido]-3-(6-formylpyrrolo[1,2-a]pyrazinium-2-yl)methyl-3-cephem-4-carboxylate] | 3.13 µg/mL (≈ 5.63 µM) | 0.1 µg/mL (≈ 0.18 µM) | 3.13 µg/mL (≈ 5.63 µM) | 6.25 µg/mL (≈ 11.2 µM) | 3.13 µg/mL (≈ 5.63 µM) | 1.56 µg/mL (≈ 2.81 µM) | 100 µg/mL (≈ 180 µM) | 0.05 µg/mL (≈ 0.09 µM) | 0.05 µg/mL (≈ 0.09 µM) | 0.05 µg/mL (≈ 0.09 µM) | 12.5 µg/mL (≈ 22.5 µM) | 0.1 µg/mL (≈ 0.18 µM) | 0.1 µg/mL (≈ 0.18 µM) | 0.05 µg/mL (≈ 0.09 µM) | 0.025 µg/mL (≈ 0.045 µM) | 0.2 µg/mL (≈ 0.36 µM) | 1.56 µg/mL (≈ 2.81 µM) | 0.39 µg/mL (≈ 0.702 µM) | 3.13 µg/mL (≈ 5.63 µM) | 0.2 µg/mL (≈ 0.36 µM)
5 | CCON=C(C(=O)NC1C(=O)N2C(C(=O)[O-])=C(C[n+]3ccn4c(SCCN)ccc4c3)CSC12)c1csc(N)n1 (stereo not drawn) [Ex. 28, 7-β-[(Z)-2-(2-aminothiazol-4-yl)2-ethoxyiminoacetamido]-3-[6-(2-aminoethylthio)pyrrolo[1,2-a]pyrazinium-2-yl]methyl-3-cephem-4-carboxylate] | 0.78 µg/mL (≈ 1.29 µM) | 0.025 µg/mL (≈ 0.0415 µM) | 0.78 µg/mL (≈ 1.29 µM) | 1.56 µg/mL (≈ 2.59 µM) | 0.78 µg/mL (≈ 1.29 µM) | 0.39 µg/mL (≈ 0.647 µM) | 50 µg/mL (≈ 83 µM) | 0.012 µg/mL (≈ 0.0199 µM) | 0.012 µg/mL (≈ 0.0199 µM) | 0.012 µg/mL (≈ 0.0199 µM) | 3.13 µg/mL (≈ 5.19 µM) | 0.05 µg/mL (≈ 0.083 µM) | 0.05 µg/mL (≈ 0.083 µM) | 0.012 µg/mL (≈ 0.0199 µM) | 0.012 µg/mL (≈ 0.0199 µM) | 0.05 µg/mL (≈ 0.083 µM) | 0.2 µg/mL (≈ 0.332 µM) | 0.1 µg/mL (≈ 0.166 µM) | 0.2 µg/mL (≈ 0.332 µM) | 0.05 µg/mL (≈ 0.083 µM)
6 | CCO/N=C(\C(=O)N[C@@H]1C(=O)N2C(C(=O)[O-])=C(C[n+]3ccn4c(C(C)=O)cc(Cl)c4c3)CS[C@H]12)c1csc(N)n1 [Ex. 35, 7-β-[(Z)-2-(2-aminothiazol-4-yl)-2-ethoxyiminoacetamido]-3-(6-acetyl-8-chloropyrrolo[1,2-a]pyrazinium-2-yl)methyl-3-cephem-4-carboxylate] | 1.56 µg/mL (≈ 2.58 µM) | 0.1 µg/mL (≈ 0.166 µM) | 1.56 µg/mL (≈ 2.58 µM) | 6.25 µg/mL (≈ 10.3 µM) | 1.56 µg/mL (≈ 2.58 µM) | 3.13 µg/mL (≈ 5.18 µM) | 25 µg/mL (≈ 41.4 µM) | 0.05 µg/mL (≈ 0.0828 µM) | 0.05 µg/mL (≈ 0.0828 µM) | 0.1 µg/mL (≈ 0.166 µM) | 25 µg/mL (≈ 41.4 µM) | 0.1 µg/mL (≈ 0.166 µM) | 0.2 µg/mL (≈ 0.331 µM) | 0.025 µg/mL (≈ 0.0414 µM) | 0.012 µg/mL (≈ 0.0199 µM) | 0.1 µg/mL (≈ 0.166 µM) | 1.56 µg/mL (≈ 2.58 µM) | 0.39 µg/mL (≈ 0.646 µM) | 0.39 µg/mL (≈ 0.646 µM) | 0.2 µg/mL (≈ 0.331 µM)

From patent publication US5593984A, “Cephalosporin derivatives” (Yuhan Corporation, priority 1992, dated 1997)
